Assay results taken from patent publication US20130109861A1, “TELOMERASE INHIBITORS AND A METHOD FOR THE PREPARATION THEREOF” (GOSUDARSTVENNOE UCHEBNO-NAUCHNOE UCHREZHDENIE KHIMICHESKIJJ …, priority 2010, published 2013).

Tests used:
telomerase = target: T1, telomerase (Homo sapiens, UniProt O14746); experiment: Inhibition of telomerase activity by TRAP-assay (telomeric repeat amplification, extracts of cervical carcinoma cell lines SiHa, C33A, CaSki, HeLa); type: biochemical; settings: concentration at which inhibition of telomerase activity is 50%
T1 construct: telomeric repeats added to an oligonucleotide by telomerase in the cell extract; endogenous in cells; host or cells: SiHa, C33A, CaSki and HeLa cervical carcinoma cell extracts (CHAPS lysis)
Description: To test the inhibition of telomerase compounds prepared in this way, we used the method of amplification added telomeric repeats (TRAP-analysis). TRAP-analysis is a standard method for determining the activity of telomerase, due to some modification this method could be semi quantitative. The choice of method for detection of telomerase activity was determined by its wide coverage in the worlds literature, almost sensitivity, as well as the availability of equipment and reagents.
Telomeric repeats amplification protocol can be divided into three main steps: primer extension, amplification of the resulting product (s) and detection. In step lengthening telomeric repeats added to an oligonucleotide by telomerase in the cell extract. Telomerase recognizes it as a substrate (TS). In step of amplification of extension products of TS oligonucleotide by telomerase false signals may appear due to amplification of telomeres of chromosomes possibly have contained in the cell extract. To avoid this, the 5′-end of the oligonucleotide TS has no telomeric sequence, which prevents it to contact with telomeres, but is recognized as a telomerase substrate. Since human telomerase adds a series repeats with six nucleotides, the resulting lengthening of TS oligonucleotide by telomerase set of DNA fragments that differ in length synthesized. […]

In the case of `C=CCN1C(=O)/C(=C/c2ccccn2)N=C1SCCSC1=N/C(=C\c2ccccn2)C(=O)N1CC=C` [Example 3, (5Z,5′Z)-2,2′-(ethan-1,2-diyldisulfanyldiyl)bis(5-(pyridine-2-ylmethylene)-3-allyl-3,5-dihydro-4H-imidazole-4-on)], the melting point is reported as 187 °C and the IC50 (telomerase) is reported as 2000 nM.
